{"source": "ChEMBL document CHEMBL5727551", "about": "“5-(n-[6,5]-fused bicyclic aryl tetrahydroisoquinolin-6-yl) pyridin-3-yl acetic acid derivatives as inhibitors of human immunodeficiency virus replication” (2020)", "assay": "Inhibition of HIV Replication: A recombinant NL-RLuc proviral clone was constructed in which a section of the nef gene from NL4-3 was replaced with the Renilla Luciferase gene. This virus is fully infectious and can undergo multiple cycles of replication in cell culture. In addition, the luciferous reporter provides a simple and easy method for quantitating the extent of virus growth and consequently, the antiviral activity of test compounds. The plasmid pNLRLuc contains the proviral NL-Rluc DNA cloned into pUC 18 at the PvuII site. The NL-RLuc virus was prepared by transfection of 293T cells with the plasmid pNLRLuc. Transfections were performed using the LipofectAMINE PLUS kit from Invitrogen (Carlsbad, Calif.) according to the manufacturer and the virus generated was titered in MT-2 cells. For susceptibility analyses, the titrated virus was used to infect MT-2 cells in the presence of compound, and after 5 days of incubation, cells were processed and quantitated for virus growth by the amount of expressed luciferase. Assay media was RPMI 1640 supplemented with 10% heat inactivated fetal bovine serum (FBS), 100 units/ml penicillin G/100 units/ml streptomycin, 10 mM HEPES buffer pH 7.55 and 2 mM L-glutamine. The results from at least 2 experiments were used to calculate the EC50 values. Luciferase was quantitated using the Dual Luciferase kit from Promega (Madison, Wis.). […]", "format": "cell-based"}
{"smiles": "Cc1nc(C)c([C@H](OC(C)(C)C)C(=O)O)c(N2CCC(C)(C)CC2)c1-c1ccc2c(c1)CCN(c1ncnc3cc[nH]c13)C2", "values": [{"measurement": "EC50", "result": 20, "unit": "nM"}]}
